Measured values: US20150374851A1, “AAV VECTORS EXPRESSING SEC10 FOR TREATING KIDNEY DAMAGE” (The Trustees of the University of Pennsylvania, priority 2009, published 2015)

Columns and labels:
[1] = tested on: Sec10-overexpressing MDCK cells
Protocol: (§1) Type II Madin-Darby canine kidney (MDCK) cells (Control cells) were obtained from Dr. K. Mostov (UCSF, San Francisco, Calif.). MDCK type II cells were overexpressing hSec10 (Sec10-overexpressing cells). See, e.g, Lipschutz et al, 2000 cited above. Cells were grown in modified Eagle's minimal essential medium (MEM) containing Earl's balanced salt solution and glutamine supplemented with 5% fetal calf serum, 100 U/ml penicillin, and 100 μg/m streptomycin on the plastic culture dishes. Some cells were grown on the 24-mm Transwell 0.45 μm polycarbonate filter units coated with collagen (Corning Life Sciences, Lowell, Mass.). Pore size on all filters was 0.4 μm. Cell monolayers were used for experiments after 7 d of culture with daily changes in medium. Cells were plated as single cells in a three-dimensional (3D) type I collagen gel. To culture collagen matrix, cells grown on plastic culture dishes were harvested using trypsin-EDTA, and suspended cells on the type I collagen gel and then seeded in chamber slide for 14 days and then treated with H2O2 (Sigma-Aldrich, Co.).
(§2) Control cells and Sec10-overexpressing cells were grown on the Transwell filter for 7 days after seeding. TER was measured using epithelial volt-ohmmeter (Model EVOM, World Precision Instruments). TER values were presented as the measured resistance in ohm multiplied by the surface area of the Transwell filter.
(§3) 1) control and Sec10-overexpressing cells were treated with U0126 alone for 30 min, U0126 plus H2O2 for 30 min, and then U0126 alone for 24 hrs (FIG. 5A), and
(§4) 2) control and Sec10-overexpressing cells were treated with H2O2 for 30 min, and U0126 alone for 24 hrs (FIG. 5B).

control MDCK cells = tested on: control MDCK cells
Protocol: as §1, §2, §3, §4

[2] = tested on: Sec10-overexpressing MDCK cells; settings: U0126 30 min, then 1 mM H2O2 plus U0126 30 min
Protocol: (§5) Normal and hSec10-overexpressing (Sec10) MDCK cells were grown on collagen-matrix for 12-14 days as described herein and then treated with 1 mM of hydrogen peroxide for 30 min. Some cells were treated with 10 μM U0126 30 min before the treatment of hydrogen peroxide. After the treatment cells were fixed with 4% paraformaldehyde and then stained with F-actin phalloidin-conjugated cy3. Numbers of damaged cysts were counted using fluorescence microscope.
as §1, with “To culture collagen matrix, cells grown on plastic culture dishes were harvested using trypsin-EDTA, and suspended cells on the type I collagen gel and then seeded in chamber slide for 14 days and then treated with H2O2 (Sigma-Aldrich, Co.).” left out

normal MDCK cells = settings: U0126 30 min, then 1 mM H2O2 plus U0126 30 min
Protocol: as §5
as §1, with “To culture collagen matrix, cells grown on plastic culture dishes were harvested using trypsin-EDTA, and suspended cells on the type I collagen gel and then seeded in chamber slide for 14 days and then treated with H2O2 (Sigma-Aldrich, Co.).” left out

[3] = tested on: phosphorylated (active) ERK; settings: 10 μM U0126 for 30 min, then 1 mM H2O2 for 30 min; Transwell filter
Protocol: Normal and hSec10-overexpressing (Sec10) MDCK cells were grown on transwell filter culture dish at confluence, incubated in either vehicle or 10 μM of U0126 (an inhibitor of ERK activation) for 30 min, and then treated with 1 mM of H2O2 for 30 min. After 30 min of incubation in U0126 cells were harvested and used to detect the levels of phosphorylated ERK. Cells were lysed in SDS buffer.
Briefly, cells or kidneys were harvested in the RIPA (Sigma Co.) containing proteinase inhibitor cocktail (Sigma. Co) and phosphatase inhibitor cocktail (Sigma. Co) and centrifuged 14,000 rpm for 20 min at 4° C. Supernatants, then, were collected and protein concentration was determined using BCA protein assay kit. Protein samples were mix SDS-sample buffer and denatured by 5 min of boiling at 95° C. The protein samples were separated on 4-12% SDS-PAGE gels and then transferred to an Immobilon membrane (Millipore Corp., Bedford, Mass.). The membranes were blocked by 5% of non-fat dry milk in PBS containing of 0.1% Tween-20 (PBS-T), and incubated in anti-phospho-ERK (1:1000, Cell signaling), -total-ERK (1:5000, Cell signaling), and -Sec10 (1:500; Lipschutz lab.) antibodies overnight at 4° C. After washing with 3 times with 0.1% PBS-T, the membranes were incubated with horseradish peroxidase-conjugated secondary antibodies for 1 h at RT. […]

N#CC(=C(/N)Sc1ccccc1N)/C(C#N)=C(\N)Sc1ccccc1N [U0126]
TER relative to TER in H2O2 alone [1]: about 80% | TER versus U0126-nontreated cells ([1]; Sec10-overexpressing cells, 24 hrs after removal of H2O2): significantly lower | H2O2-induced decrease of TER ([1]; Sec10-overexpressing cells, U0126 pretreatment 30 min, 1 mM H2O2): accelerated H2O2-induced decrease of TER | TER relative to TER in H2O2 alone (control MDCK cells): about 83% | TER recovery versus non-U0126 treated cells (control MDCK cells; control cells, 24 hrs after removal of H2O2): not significantly different | H2O2-induced decrease of TER (control MDCK cells; control cells, U0126 pretreatment 30 min, 1 mM H2O2): accelerated H2O2-induced decrease of TER | Numbers of damaged cysts [2]: increased | Numbers of damaged cysts (normal MDCK cells): increased | ERK phosphorylation caused by H2O2 treatment [3]: blocked ERK phosphorylation
